Experimental data taken from patent US9650339B2, “Inhibitors of histone demethylases” (Gilead Sciences, Inc., priority 2013, dated 2017).

How the values were obtained:
Format in all cases: biochemical
KDM4C (JMJD2C) = molecular target: T1, KDM4C (JMJD2C) (Homo sapiens, UniProt Q9H3R0); assay: Histone lysine demethylase AlphaLISA assay, KDM4C; conditions: read-out: KDM4C HDME Inhibition IC50
T1 sequence (Q9H3R0 1-349): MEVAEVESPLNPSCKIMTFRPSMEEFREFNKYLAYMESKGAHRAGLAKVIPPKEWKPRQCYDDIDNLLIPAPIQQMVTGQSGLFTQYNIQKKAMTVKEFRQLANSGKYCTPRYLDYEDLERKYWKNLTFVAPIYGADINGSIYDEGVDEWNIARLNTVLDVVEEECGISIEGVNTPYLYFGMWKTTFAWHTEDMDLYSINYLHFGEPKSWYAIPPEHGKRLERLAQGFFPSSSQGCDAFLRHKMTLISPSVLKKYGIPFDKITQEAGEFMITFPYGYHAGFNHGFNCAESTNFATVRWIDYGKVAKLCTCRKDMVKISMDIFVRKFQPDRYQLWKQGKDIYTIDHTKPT
How it was run: (§1)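 AlphaLISA demethylation readout: enzyme preincubated 10 min, then 10 min with compounds in 3% DMSO buffer, before biotinylated methyl-lysine histone peptide substrate with 25 μM L-Asc and 10 μM α-KG, room temperature. Acceptor beads then streptavidin donor beads added, dark incubation, plates read.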

KDM4A (JMJD2A) = molecular target: T2, KDM4A (JMJD2A) (Homo sapiens, UniProt O75164); assay: Histone lysine demethylase AlphaLISA assay, KDM4A; conditions: read-out: KDM4A HDME Inhibition IC50
T2 construct: 1-350; purchased BPS Bioscience, US; host or cells: E. coli
T2 sequence (O75164 1-350): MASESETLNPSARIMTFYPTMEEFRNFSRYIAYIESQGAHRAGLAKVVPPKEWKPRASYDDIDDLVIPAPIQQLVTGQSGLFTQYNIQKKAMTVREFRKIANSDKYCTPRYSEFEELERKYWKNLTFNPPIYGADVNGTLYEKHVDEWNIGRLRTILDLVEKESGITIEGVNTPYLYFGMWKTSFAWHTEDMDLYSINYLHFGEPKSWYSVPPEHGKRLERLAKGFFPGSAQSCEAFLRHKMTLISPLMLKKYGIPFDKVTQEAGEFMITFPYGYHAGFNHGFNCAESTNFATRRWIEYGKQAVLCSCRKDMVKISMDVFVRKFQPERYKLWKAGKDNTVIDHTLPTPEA
Protocol: Assays are performed analogously to the protocol described by PerkinElmer (Roy et al. PerkinElmer Technical Note: AlphaLISA #12, April 2011)
Enzymes are dissolved in enzyme buffer and incubated for 10 min before being added to 3% DMSO solutions of compounds in enzyme buffer. Incubated for another 10 minutes, before substrate solution is added and the reaction mixture is incubated at room temperature. 10 μL acceptor beads, suspended in Epigenetic Buffer (Perkin Elmer AL008) from stock, are added and the suspension is incubated in the dark at room temperature, before a suspension of streptavidin donor beads (Perkin Elmer 6760002) in Epigenetic Buffer is added. After incubation at room temperature in the dark the plates are read.
BK9M3: Biotin-ARTKQTAR(KMe3)STGGKAPRKQ-NH2 (Caslo, Denmark) […]
Substrate Solution: Substrate, 25 μM L-Asc, and 10 μM α-KG in Buffer A.

KDM2B (FBXL10) = molecular target: T3, KDM2B (FBXL10) (Homo sapiens, UniProt Q8NHM5); assay: Histone lysine demethylase AlphaLISA assay, KDM2B; conditions: read-out: KDM2B HDME Inhibition IC50
T3 sequence (Q8NHM5 1-650): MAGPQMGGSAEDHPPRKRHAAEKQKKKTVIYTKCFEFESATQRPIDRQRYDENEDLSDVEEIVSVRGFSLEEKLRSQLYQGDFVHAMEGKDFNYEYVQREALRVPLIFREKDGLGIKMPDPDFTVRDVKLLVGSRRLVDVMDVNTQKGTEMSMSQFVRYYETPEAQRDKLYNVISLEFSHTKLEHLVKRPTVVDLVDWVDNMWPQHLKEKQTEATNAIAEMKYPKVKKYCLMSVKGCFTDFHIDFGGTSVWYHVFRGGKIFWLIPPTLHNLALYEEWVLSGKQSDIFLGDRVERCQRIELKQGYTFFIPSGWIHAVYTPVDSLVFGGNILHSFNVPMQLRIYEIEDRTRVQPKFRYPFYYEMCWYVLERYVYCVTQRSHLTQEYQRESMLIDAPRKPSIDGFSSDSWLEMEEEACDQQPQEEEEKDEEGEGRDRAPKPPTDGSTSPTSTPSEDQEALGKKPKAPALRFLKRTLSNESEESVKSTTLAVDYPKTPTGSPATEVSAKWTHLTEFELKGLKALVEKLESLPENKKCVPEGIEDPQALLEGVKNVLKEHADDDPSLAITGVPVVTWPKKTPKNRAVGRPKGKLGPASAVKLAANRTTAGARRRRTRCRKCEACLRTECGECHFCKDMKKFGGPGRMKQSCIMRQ
How it was run: as §1

| Structure (SMILES) | IC50 (KDM4C (JMJD2C)) [nM] | IC50 (KDM4A (JMJD2A)) [nM] | IC50 (KDM2B (FBXL10)) [nM] |
| --- | --- | --- | --- |
| CCN1CCCC1CNC(=O)CNCc1cc(/C=N/C2CC2)ccn1 (stereo not drawn) [Compound 51, 2-[({4-[N-cyclopropyl-carboximidoyl]-pyridin-2-yl}methyl)-amino]-N-[(1-ethylpyrrolidin-2-yl)methyl]acetamide] | > 2500 | 250 to 2500 | > 2500 |
| O=C(CNCc1cc(/C=N/C2CC2)ccn1)NC1CCN(Cc2ccccc2)C1 (stereo not drawn) [Compound 53, N-(1-benzylpyrrolidin-3-yl)-2-[({4-[N-cyclopropyl-carboximidoyl]pyridin-2-yl}methyl)amino]-acetamide] | 250 to 2500 | < 250 | 250 to 2500 |
| CN1CCN(C(=O)CNCc2cc(/C=N/C3CC3)ccn2)CC1 [Compound 54, 2-[({4-[N-cyclopropyl-carboximidoyl]-pyridin-2-yl}methyl)amino]-1-(4-methylpiperazin-1-yl)ethan-1-one] | 250 to 2500 | 250 to 2500 | > 2500 |
| CCN(CC)C(=O)CNCc1cc(/C=N/CCC2CCCCC2)ccn1 [Compound 57, 2-[({4-[[(2-cyclohexylethyl)imino]-methyl]pyridin-2-yl}methyl)amino]-N,N-diethylacetamide] | 250 to 2500 | 250 to 2500 | 250 to 2500 |
| CCCCCCCC/N=C/c1ccnc(CNCC(=O)N(CC)CC)c1 [Compound 58, N,N-diethyl-2-[({4-[(octylimino)methyl]-pyridin-2-yl}methyl)amino]-acetamide] | 250 to 2500 | > 2500 | 250 to 2500 |
| CCN(CC)CCCCNCc1cc(/C=N/CCOC)ccn1 [Compound 60, [4-(diethylamino)butyl]-({4-[[(2-methoxyethyl)imino]-methyl]pyridin-2-yl}methyl)amine] | > 2500 | < 250 | > 2500 |
| CCN(CC)CCCCNCc1cc(/C=N/CCO)ccn1 [Compound 61, 2-[{[2-({[4-(diethylamino)-butyl]amino}-methyl)pyridin-4-yl]methylidene}-amino]ethan-1-ol] | 250 to 2500 | > 2500 | > 2500 |
| CCN(CCN(C)C)C(=O)CNCc1cc(/C=N/CCO)ccn1 [Compound 66] | < 250 | < 250 | > 2500 |
| CN(C)CC1CCC(CNCc2cc(C=O)ccn2)CC1 (stereo not drawn) [Compound 97, 2-{[({4-[(dimethylamino)-methyl]cyclohexyl}-methyl)amino]-methyl}pyridine-4-carbaldehyde] | > 2500 | > 2500 | > 2500 |
| CN(C)C/C=C/CNCc1cc(C=O)ccn1 [Compound 98, 2-({[(2E)-4-(dimethylamino)but-2-en-1-yl]amino}-methyl)pyridine-4-carbaldehyde] | 250 to 2500 | > 2500 | > 2500 |
| CN(C)C/C=C\CNCc1cc(C=O)ccn1 [Compound 99, 2-({[(2Z)-4-(dimethylamino)-but-2-en-1-yl]amino}methyl)-pyridine-4-carbaldehyde] | > 2500 | > 2500 | > 2500 |
| CCN(CCN(C)C)C(=O)CNCc1cc(C=O)ccn1 [Compound 101] | < 250 | < 250 | > 2500 |
| O=Cc1ccnc(CNCC(=O)N2CCC[C@@H]2CN2CCCC2)c1 [Compound 102, 2-[({2-oxo-2-[(2R)-2-(pyrrolidin-1-ylmethyl)pyrrolidin-1-yl]ethyl}amino)-methyl]pyridine-4-carbaldehyde] | < 250 | > 2500 | > 2500 |
| CN1CCN(C(=O)CNCc2cc(C=O)ccn2)CC1 [Compound 103, 2-({[2-(4-methylpiperazin-1-yl)-2-oxoethyl]-amino}methyl)-pyridine-4-carbaldehyde] | > 2500 | > 2500 | > 2500 |
| CCN(CC)C(=O)CNCc1cc(C=O)ccn1 [Compound 105, N,N-diethyl-2-{[(4-formylpyridin-2-yl)methyl]amino}-acetamide] | > 2500 | > 2500 | > 2500 |

Other lines, results leading:

| IC50 (KDM4C (JMJD2C)) [nM] | IC50 (KDM4A (JMJD2A)) [nM] | IC50 (KDM2B (FBXL10)) [nM] | Structure (SMILES) |
| --- | --- | --- | --- |
| 250 to 2500 | < 250 | 250 to 2500 | CCN(CCC#N)C(=O)CNCc1cc(/C=N/C2CC2)ccn1 [Compound 50, N-(2-cyanoethyl)-2-[({4-[N-cyclopropyl-carboximidoyl]-pyridin-2-yl}methyl)amino]-N-ethylacetamide] |
| 250 to 2500 | 250 to 2500 | 250 to 2500 | CN(CCCn1cccn1)C(=O)CNCc1cc(/C=N/C2CC2)ccn1 [Compound 52, 2-[({4-[N-cyclopropyl-carboximidoyl]-pyridin-2-yl}methyl)amino]-N-methyl-N-[3-(1H-pyrazol-1-yl)propyl]acetamide] |
| 250 to 2500 | 250 to 2500 | > 2500 | O=C(CNCc1cc(/C=N/C2CC2)ccn1)N1CCC(Cc2ccccc2)CC1 [Compound 55, 1-(4-benzylpiperidin-1-yl)-2-[({4-[N-cyclopropyl-carboximidoyl]-pyridin-2-yl}methyl)amino]-ethan-1-one] |
| > 2500 | 250 to 2500 | > 2500 | C#CCN(C)C(=O)CNCc1cc(/C=N/C2CC2)ccn1 [Compound 56, 2-[({4-[N-cyclopropyl-carboximidoyl]-pyridin-2-yl}methyl)amino]-N-methyl-N-(prop-2-yn-1-yl)acetamide] |
| > 2500 | > 2500 | > 2500 | CCN(CC)CCCCNCc1cc(/C=N/CC(F)(F)C(F)(F)F)ccn1 [Compound 62, {[2-({[4-(diethylamino)-butyl]amino}methyl)pyridin-4-yl]methylidene} (2,2,3,3,3-pentafluoropropyl)-amine] |
| < 250 | > 2500 | 250 to 2500 | CCN(CCN(C)C)C(=O)CNCc1cc(/C=N/CCC2CCCCC2)ccn1 [Compound 63, 2-[({4-[[(2-cydohexylethyl)-imino]methyl]pyridin-2-yl}methyl)amino]-N-[2-(dimethylamino)-ethyl]-N-ethylacetamide] |
| > 2500 | 250 to 2500 | > 2500 | CON=Cc1ccnc(CNCCCN(C)C)c1 [Compound 64, [3-(dimethylamino)-propyl]({4-[(methoxyimino)-methyl]pyridin-2-yl}methyl)amine] |
| 250 to 2500 | > 2500 | > 2500 | CCN(CC)CCCCNCc1cc(C2NCCN2C)ccn1 (stereo not drawn) [Compound 65, [4-(diethylamino)-butyl]({[4-(1-methylimidazolidin-2-yl)pyridin-2-yl]methyl})amine] |
| 250 to 2500 | > 2500 | > 2500 | CCN(CC)CCCCNCc1cc(/C=N\CCC2CCCCC2)ccn1 [Compound 67, (2-cyclohexylethyl)-({[2-({[4-(diethylamino)-butyl]amino}methyl)pyridin-4-yl]methylidene})-amine] |
| 250 to 2500 | 250 to 2500 | > 2500 | O=Cc1ccnc(CNCC(=O)N2CCC(Cc3ccccc3)CC2)c1 [Compound 106, 2-({[2-(4-benzylpiperidin-1-yl)-2-oxoethyl]-amino}methyl)-pyridine-4-carbaldehyde] |
